We go through 24 molecules from patent publication US10172814B2, “Substituted pyridyl-cycloalkyl-carboxylic acids, compositions containing them and medical uses thereof” (BAYER PHARMA AKTIENGESELLSCHAFT, priority 2014, dated 2019).

The target of the assay is human PTGES (Homo sapiens (Human), UniProt O14684). As to the kind of experiment: Human PTGES biochemical enzyme inhibition assay (conversion of PGH2 to PGE2, TR-FRET). The note with it: Enzymatic conversion of PGH2 to PGE2; read-out: Human PTGES IC50. Here is the method: Human PTGES Biochemical Enzyme Inhibition Assay:
PTGES (Microsomal prostaglandin E synthase 1) is an enzyme that converts prostaglandin H2 (PGH2) to prostaglandin E2 (PGE2) in the presence of reduced glutathione (GSH).
Recombinant proteins (human isoforms) of PTGES containing a FLAG tag, expressed in baculovirus infected insect cells (Hi-5) and purified by affinity chromatography was used as enzyme in the assay. Substrate was prostaglandin H2 (Cayman Chemicals).
4 ul of a solution of human PTGES in assay buffer [100 mM sodium phosphate pH 7.2, 2.5 mM Glutathion reduced, 1 mM EDTA, 0.01% BSA, 0.4 mM DTT, 0.15 mM n-dodecylmaltoside] was added to the well containing test compound and incubated for 15-20 minutes to allow binding of the compound to the enzyme prior to the enzymatic reaction. The reaction was started by addition of 1 ul of an ice cold solution containing PGH2 (40 nM in assay buffer resulting in a final concentration of 8 nM PGH2 in the assay). […] The concentration of each isoform of PTGES was adapted to the activity of the respective enzyme preparation to maintain linear reaction properties within the reaction time. […] The reaction was stopped by addition of 1 ul of a solution containing 15 mM SnCl2 and 400 mM KF in water. SnCl2 converts the remaining unstable PGH2 to stable PGF2alpha. Then, 3 ul of the a first detection solution containing PGE2-D2 (Cisbio Bioassays, TR-FRET reagent, diluted according to the manufacturer's recommendation, typically 1:20 in reconstitution buffer) was added. […] The resulting mix was incubated overnight at 4° C. to allow the formation of a complex of PGE2 and the detection reagents. […] Dilution series were made prior to the assay in a 100 fold concentrated form by serial dilution. IC50 values were calculated by 4-Parameter fitting.

Chain of human PTGES (O14684 whole entry): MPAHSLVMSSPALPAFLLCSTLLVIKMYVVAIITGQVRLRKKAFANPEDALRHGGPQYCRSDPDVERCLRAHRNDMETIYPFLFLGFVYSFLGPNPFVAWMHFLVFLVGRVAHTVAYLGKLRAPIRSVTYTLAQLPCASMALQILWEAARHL

As to `Cc1ncc(-c2ccc(C(C(=O)Nc3cccc(C(C)CC(=O)O)c3C)C3CCCC3)cc2F)cc1Cl` (single isomer, unassigned; stereoisomer 3) [Example 123, 3-[3-({[4-(5-Chloro-6-methylpyridin-3-yl)-3-fluorophenyl](cyclopentyl)acetyl}amino)-2-methylphenyl]butanoic acid, Stereoisomer 3], the IC50 worked out at 646 nM.

Turning to `Cc1cc(C(C(=O)Nc2cccc(CCC(=O)O)c2C)C2CCCC2)c(Cl)cc1-c1cncc(C(F)(F)F)c1` (racemic) [Example 173, (R/S) 3-(3-{[{2-chloro-5-methyl-4-[5-(trifluoromethyl)pyridin-3-yl]phenyl}(cyclopentyl)acetyl]amino}-2-methylphenyl)propanoic acid], the IC50 was found to be 1240 nM.

`Cc1c(CCC(=O)O)cccc1NC(=O)C(c1ccc(-c2cncc(OC(F)F)c2)cc1)C1CCC1` (racemic) [Example 63, (R/S) 3-{3-[(Cyclobutyl{4-[5-(difluoromethoxy)pyridin-3-yl]phenyl}acetyl)amino]-2-methylphenyl}propanoic acid]: the IC50 is 103 nM.

As to `CCC(CC(=O)O)c1cccc(NC(=O)C(c2ccc(-c3cnc(C)c(C(F)(F)F)c3)c(F)c2)C2CCCC2)c1C` (single isomer, unassigned) [Example 201], the IC50 was determined as 6.57 nM.

Turning to `Cc1ccc(-c2ccc(C(C(=O)Nc3cccc(CC(C)C(=O)O)c3C)C3CCCC3)cc2)cn1` (stereo not drawn) [Example 79, (2R/2S)-3-[3-({(2R/2S)-2-Cyclopentyl-2-[4-(6-methylpyridin-3-yl)phenyl]acetyl}amino)-2-methylphenyl]-2-methylpropanoic acid], the IC50 was determined as 433 nM.

In the case of `Cc1c(CCC(=O)O)cccc1NC(=O)C(c1ccc(-c2cncc(CC(C)C)c2)c(F)c1)C1CCC1` (single isomer, unassigned) [Example 207, 3-[3-({cyclobutyl[3-fluoro-4-(5-isobutylpyridin-3-yl)phenyl]acetyl}amino)-2-methylphenyl]propanoic acid, Single Enantiomer], the concentration for half-maximal inhibition (IC50) turned out to be 14.1 nM.

Consider `Cc1c(NC(=O)C(c2ccc(-c3cncc(C(F)(F)F)c3)c(F)c2)C2CCC2)cccc1C(C)CC(=O)O` (single isomer, unassigned; stereoisomer 2) [Example 148, 3-{3-[(Cyclobutyl{3-fluoro-4-[5-(trifluoromethyl)pyridin-3-yl]phenyl}acetyl)amino]-2-methylphenyl}butanoic acid, Stereoisomer 2], for which the IC50 turned out to be 24.2 nM.

As to `Cc1c(NC(=O)C(c2ccc(-c3cncc(C(F)(F)F)c3)c(F)c2)C2CCCC2)cccc1C(C)CC(=O)O` (mixture of isomers) [Example 115, (3R/S)-3-(3-{[(2R/S)-2-Cyclopentyl-2-{3-fluoro-4-[5-(trifluoromethyl)pyridin-3-yl]phenyl}acetyl]amino}-2-methylphenyl)butanoic acid], the half-inhibitory concentration (IC50) was determined as 18.5 nM.

For `CCOc1cncc(-c2ccc(C(C(=O)Nc3cccc(C(CC)CC(=O)O)c3C)C3CCCC3)cc2)c1` (mixture of isomers) [Example 107, (3R/S)-3-[3-({(2R/S)-2-Cyclopentyl-2-[4-(5-ethoxypyridin-3-yl)phenyl]acetyl}amino)-2-methylphenyl]pentanoic acid], the IC50 stood at 106 nM.

Take `Cc1c(NC(=O)C(c2ccc(-c3cncc(Cl)c3)cc2)C2CCC2)cccc1C(C)CC(=O)O` (mixture of isomers) [Example 135, (3R/S)-3-[3-({(2R/S)-2-[4-(5-Chloropyridin-3-yl)phenyl]-2-cyclobutylacetyl}amino)-2-methylphenyl]butanoic acid]: the IC50 amounted to 86.2 nM.

Turning to `Cc1c(CC(C)C(=O)O)cccc1NC(=O)C(c1ccc(-c2cncc(C(F)(F)F)c2)cc1)C1CCCC1` (single isomer, unassigned; stereoisomer 1) [Example 69, 3-{3-[(Cyclopentyl{4-[5-(trifluoromethyl)pyridin-3-yl]phenyl}acetyl)amino]-2-methylphenyl}-2-methylpropanoic acid, Stereoisomer 1], the concentration for half-maximal inhibition (IC50) came to 8740 nM.

As for `Cc1c(NC(=O)C(c2ccc(-c3cncc(C(F)(F)F)c3)cc2)C2CCCC2)cccc1OCC(=O)O` (single isomer, unassigned; (-)) [Example 34, (−) {3-[(Cyclopentyl{4-[5-(trifluoromethyl)pyridin-3-yl]phenyl}acetyl)amino]-2-methylphenoxy}acetic acid], the half-inhibitory concentration (IC50) amounted to 9.85 nM.

For `Cc1cc(-c2ccc(C(C(=O)Nc3cccc(C(C)CC(=O)O)c3C)C3CCCC3)cc2)cnc1C` (mixture of isomers) [Example 93, (3R/S)-3-[3-({(2R/S)-2-Cyclopentyl-2-[4-(5,6-dimethylpyridin-3-yl)phenyl]acetyl}amino)-2-methylphenyl]butanoic acid], the 50% inhibitory concentration (IC50) worked out at 35.6 nM.

`Cc1ncc(-c2ccc(C(C(=O)Nc3cccc(CCC(=O)O)c3C)C3CCC3)cc2F)cc1C(F)(F)F` (single isomer, unassigned; (-)) [Example 206, (−) 3-{3-[(cyclobutyl{3-fluoro-4-[6-methyl-5-(trifluoromethyl)pyridin-3-yl]phenyl}acetyl)amino]-2-methylphenyl}propanoic acid, Single Enantiomer]: the half-inhibitory concentration (IC50) turned out to be 10.1 nM.

For the molecule `Cc1c(NC(=O)C(c2ccc(-c3cncc(C(F)(F)F)c3)cc2)C2CCCC2)cccc1OCC(=O)O` (single isomer, unassigned; (+)) [Example 35, (+) {3-[(Cyclopentyl{4-[5-(trifluoromethyl)pyridin-3-yl]phenyl}acetyl)amino]-2-methylphenoxy}acetic acid], the IC50 came out at 3730 nM.

For the molecule `Cc1c(CCC(=O)O)cccc1NC(=O)C(c1ccc(-c2cncc(C(F)(F)F)c2)cc1F)C1CCCC1` (racemic) [Example 53, (R/S) 3-{3-[(Cyclopentyl{2-fluoro-4-[5-(trifluoromethyl)pyridin-3-yl]phenyl}acetyl)amino]-2-methylphenyl}propanoic acid], the IC50 is 53.3 nM.

On to `Cc1ncc(-c2cc(F)c(C(C(=O)Nc3cccc(CCC(=O)O)c3C)C3CCCC3)cc2F)cc1Cl` (racemic) [Example 180, (R/S) 3-[3-({[4-(5-chloro-6-methylpyridin-3-yl)-2,5-difluorophenyl](cyclopentyl)acetyl}amino)-2-methylphenyl]propanoic acid], for which the IC50 amounted to 66.4 nM.

As for `Cc1c(NC(=O)C(c2ccc(-c3cncc(C(F)F)c3)cc2)C2CCCC2)cccc1C(C)CC(=O)O` (mixture of isomers) [Example 98, (3R/S)-3-(3-{[(2R/S)-2-Cyclopentyl-2-{4-[5-(difluoromethyl)pyridin-3-yl]phenyl}acetyl]amino}-2-methylphenyl)butanoic acid], the IC50 is 33.8 nM.

As to `Cc1c(CCC(=O)O)cccc1NC(=O)C(c1ccc(-c2ccc(C#N)nc2)cc1)C1CCCC1` (racemic) [Example 7, (R/S) 3-[3-({[4-(6-Cyanopyridin-3-yl)phenyl](cyclopentyl)acetyl}amino)-2-methylphenyl]propanoic acid], the IC50 worked out at 3160 nM.

In the case of `Cc1c(NC(=O)C(c2ccc(-c3cncc(C(F)(F)F)c3)c(F)c2)C2CCCC2)cccc1C(C)CC(=O)O` (single isomer, unassigned; stereoisomer 4) [Example 119, 3-{3-[(Cyclopentyl{3-fluoro-4-[5-(trifluoromethyl)pyridin-3-yl]phenyl}acetyl)amino]-2-methylphenyl}butanoic acid, Stereoisomer 4], the 50% inhibitory concentration (IC50) was determined as 1060 nM.

As to `Cc1c(CCC(=O)O)cccc1NC(=O)C(c1ccc(-c2cncc(Cl)c2)cc1)C1CCCCC1` (racemic) [Example 65, (R/S) 3-[3-({[4-(5-Chloropyridin-3-yl)phenyl](cyclohexyl)acetyl}amino)-2-methylphenyl]propanoic acid], the IC50 is 196 nM.

Consider `Cc1ncc(-c2ccc([C@H](C(=O)Nc3ccc(F)c(CCC(=O)O)c3C)C3CCCC3)cc2)cc1Cl` [Example 184, 3-[3-({(2R)-2-[4-(5-chloro-6-methylpyridin-3-yl)phenyl]-2-cyclopentylacetyl}amino)-6-fluoro-2-methylphenyl]propanoic acid], for which the IC50 is 23.7 nM.

Turning to `Cc1c(NC(=O)C(c2ccc(-c3cncc(Cl)c3)c(F)c2)C2CCC2)cccc1C(C)CC(=O)O` (single isomer, unassigned; stereoisomer 3) [Example 152, 3-[3-({[4-(5-Chloropyridin-3-yl)-3-fluorophenyl](cyclobutyl)acetyl}amino)-2-methylphenyl]butanoic acid, Stereoisomer 3], the IC50 is 914 nM.

In the case of `Cc1ncc(-c2ccc(C(C(=O)Nc3cccc(CCC(=O)O)c3C)C3CCCC3)cc2)cc1F` (racemic) [Example 211, (R/S) 3-[3-({cyclopentyl[4-(5-fluoro-6-methylpyridin-3-yl)phenyl]acetyl}amino)-2-methylphenyl]propanoic acid], the IC50 was 190 nM.

As usually defined, the IC50 is the point on the concentration scale where inhibition reaches its midpoint.
